Assay results taken from US11976068B2 (CHIMERIX, INC., priority 2015, dated 2024).
Where “and” joins values, the source holds several entries; their conditions need not be identical. Equal values may be shown once.

Assays:
human BCRP = molecular target: T1, human BCRP (Homo sapiens, UniProt Q9UNQ0); assay: BCRP inhibition, bidirectional permeability of prazosin in MDCKII-BCRP monolayers; details: at 200 micromolar
T1 sequence (Q9UNQ0 1-655): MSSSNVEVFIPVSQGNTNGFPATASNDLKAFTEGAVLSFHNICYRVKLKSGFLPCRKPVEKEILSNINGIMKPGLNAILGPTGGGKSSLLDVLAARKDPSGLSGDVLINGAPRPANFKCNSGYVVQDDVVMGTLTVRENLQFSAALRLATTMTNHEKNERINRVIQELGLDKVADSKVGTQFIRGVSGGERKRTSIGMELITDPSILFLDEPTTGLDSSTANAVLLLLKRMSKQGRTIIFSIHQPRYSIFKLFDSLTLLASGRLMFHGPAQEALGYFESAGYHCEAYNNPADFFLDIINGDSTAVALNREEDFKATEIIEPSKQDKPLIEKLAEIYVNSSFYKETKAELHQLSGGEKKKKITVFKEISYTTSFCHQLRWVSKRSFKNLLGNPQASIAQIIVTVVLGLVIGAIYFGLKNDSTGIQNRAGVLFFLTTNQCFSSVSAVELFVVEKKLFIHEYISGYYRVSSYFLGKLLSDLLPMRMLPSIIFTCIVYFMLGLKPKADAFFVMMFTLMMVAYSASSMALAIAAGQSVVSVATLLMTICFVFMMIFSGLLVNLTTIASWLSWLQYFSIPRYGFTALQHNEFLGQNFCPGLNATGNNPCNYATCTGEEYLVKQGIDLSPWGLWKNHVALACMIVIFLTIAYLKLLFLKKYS

[1] = Phase I trial, plasma pharmacokinetics of oral ONC201; details: for AUC(0-t): AUClast; for Vd/F: Vz/F
[2] = system: cleaved cytokeratin 18 (cCK18); assay: Phase I trial, serum M30 assay; type: in vivo, human
Description: Serum levels of cleaved cytokeratin 18 (cCK18) were assessed using the M30 assay and serum levels of total cytokeratin 18 (CK18) were assessed using the M65 assay (Perviva A.B., Sweden). Assessments of other tumor-specific markers were also evaluated per standard of care.
Given the heterogeneity of the tumor types in the enrolled patients, no widely used biomarker was available to uniformly assay all patient samples. In particular, the serum M30 assay is able to detect a caspase-cleaved form of cytokeratin-18 that occurs during apoptosis, which is useful in a heterogeneous study of solid tumors because most solid tumors express cytokeratin-18. The M30 sandwich ELISA has been used extensively in clinical trials as biomarkers of cell death induced by a variety of different cancer chemotherapeutic agents in a spectrum of different solid tumors. In addition to the serum M30 assay, the M65 sandwich ELISA assay, which has also been used in clinical studies to detect increases in total cytokeratin 18 that can occur with tumor necrosis and disease progression, was used to differentiate tumor apoptosis from necrosis.

[3] = Phase I trial, safety and toxicity assessment
human MDR1 = human MDR1 (Homo sapiens, UniProt P08183); details: at 200 micromolar
Chain of human MDR1 (P08183 whole entry): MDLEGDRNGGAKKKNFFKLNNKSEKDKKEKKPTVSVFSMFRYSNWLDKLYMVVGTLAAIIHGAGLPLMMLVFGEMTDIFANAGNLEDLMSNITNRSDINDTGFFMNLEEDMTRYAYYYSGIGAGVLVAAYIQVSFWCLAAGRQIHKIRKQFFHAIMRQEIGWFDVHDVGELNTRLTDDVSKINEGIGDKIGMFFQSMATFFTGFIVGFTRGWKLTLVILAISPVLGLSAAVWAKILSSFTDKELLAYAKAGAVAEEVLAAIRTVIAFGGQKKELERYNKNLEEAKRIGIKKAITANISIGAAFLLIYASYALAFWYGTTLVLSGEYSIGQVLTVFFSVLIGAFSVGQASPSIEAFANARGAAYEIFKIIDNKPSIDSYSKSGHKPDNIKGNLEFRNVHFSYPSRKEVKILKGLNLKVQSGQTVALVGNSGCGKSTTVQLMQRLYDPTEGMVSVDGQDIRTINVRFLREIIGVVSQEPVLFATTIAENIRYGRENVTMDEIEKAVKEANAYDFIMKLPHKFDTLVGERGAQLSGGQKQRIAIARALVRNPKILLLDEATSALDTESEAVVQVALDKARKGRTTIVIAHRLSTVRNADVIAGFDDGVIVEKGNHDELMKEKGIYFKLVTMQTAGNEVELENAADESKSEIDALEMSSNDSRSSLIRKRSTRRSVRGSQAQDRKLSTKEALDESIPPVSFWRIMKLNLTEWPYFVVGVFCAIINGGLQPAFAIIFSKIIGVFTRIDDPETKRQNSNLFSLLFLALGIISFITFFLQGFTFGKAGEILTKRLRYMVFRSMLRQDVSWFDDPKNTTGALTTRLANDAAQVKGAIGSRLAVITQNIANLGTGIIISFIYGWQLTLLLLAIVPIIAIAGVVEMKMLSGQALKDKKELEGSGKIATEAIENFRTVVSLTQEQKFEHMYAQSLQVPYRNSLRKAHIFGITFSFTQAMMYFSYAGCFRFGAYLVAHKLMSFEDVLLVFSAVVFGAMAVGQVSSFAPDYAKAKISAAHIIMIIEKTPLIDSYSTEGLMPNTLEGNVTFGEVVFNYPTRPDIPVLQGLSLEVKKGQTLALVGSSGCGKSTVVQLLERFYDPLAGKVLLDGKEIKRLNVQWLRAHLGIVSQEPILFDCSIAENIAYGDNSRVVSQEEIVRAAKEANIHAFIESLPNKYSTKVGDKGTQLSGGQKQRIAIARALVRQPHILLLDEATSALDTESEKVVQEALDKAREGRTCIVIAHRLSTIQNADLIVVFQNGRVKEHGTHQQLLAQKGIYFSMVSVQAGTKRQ

[4] = N=6 patients receiving 625 mg ONC201 every three weeks
[5] = human, in vivo, 625 mg, Mean, N=6 patients receiving 625 mg ONC201 every three weeks
[6] = human, in vivo, 625 mg, Median, N=6 patients receiving 625 mg ONC201 every three weeks
[7] = human, in vivo, 625 mg, Geo. Mean, N=6 patients receiving 625 mg ONC201 every three weeks
[8] = Pat # 1, NSCLC, 125 mg every three weeks, dose escalation phase
[9] = Pat # 2, Appendiceal adenocarcinoma, 250 mg every three weeks, dose escalation phase
[10] = Pat # 3, Uterine cancer, 375 mg every three weeks, dose escalation phase
[11] = Pat # 4, Renal cancer, 500 mg every three weeks, dose escalation phase
[12] = Pat # 5, Breast cancer, 625 mg every three weeks, dose escalation phase
[13] = Pat # 6, Prostate adenocarcinoma, 625 mg every three weeks, dose escalation phase
[14] = Pat # 7, Small cell lung cancer, 625 mg every three weeks, dose escalation phase
[15] = Pat # 8, Colon adenocarcinoma, 625 mg every three weeks, dose escalation phase
[16] = Pat # 9, Spindle cell sarcoma, 625 mg every three weeks, dose escalation phase
[17] = Pat # 10, Ovarian, 625 mg every three weeks, dose escalation phase
[18] = Pat # 11, Uterine cancer, 625 mg every three weeks, expansion phase
[19] = Pat # 13, Ovarian cancer, 625 mg every three weeks, expansion phase
[20] = Pat # 14, Gall bladder cancer, 625 mg every three weeks, expansion phase
[21] = Pat # 15, Desmoplastic small round cell tumor (DSRCT), 625 mg every three weeks, expansion phase
[22] = Pat # 16, Colon cancer, 625 mg every three weeks, expansion phase
[23] = Pat # 17, Prostate adenocarcinoma, 625 mg every three weeks, expansion phase
[24] = Pat # 18, Ovarian cancer, 625 mg every three weeks, expansion phase
[25] = Pat # 19, Prostate adenocarcinoma, 625 mg every three weeks, expansion phase
[26] = Pat # 20, Uterine Cancer, 625 mg every three weeks, expansion phase

## Cc1ccccc1CN1C(=O)C2=C(CCN(Cc3ccccc3)C2)N2CCN=C12 [ONC201, 7-benzyl-4-(2-methylbenzyl)-2,4,6,7,8,9-hexahydroimidazo [1,2-a]pyrido[3,4-e]pyrimidin-5(1H)-one]
Human BCRP
  inhibitor of BCRP: inhibitor
[1]; [4]
  AUC, Min: 13868 h · ng/m
  CL/F, Geo. Mean: 25.41 L/h
  CL/F, Max: 45.07 L/h
  CL/F, Mean: 27.19 L/h
  CL/F, Median: 24.83 L/h
  CL/F, Min: 14.03 L/h
  Cmax, Max: 7470 ng/mL
  Cmax, Min: 1530 ng/mL
  Tlag, Max: 0.30 h
  Tlag, Mean: 0.05 h
  Tlag, Median: 0.00 h
  Tlag, Min: 0.00 h
  Tmax, Max: 3.95 h
  Tmax, Min: 22.2 min
  t1/2, Max: 12.55 h
  t1/2, Min: 7.71 h
  λZ, Geo. Mean: 0.073 h⁻¹
  λZ, Max: 0.090 h⁻¹
  λZ, Mean: 0.074 h⁻¹
  λZ, Median: 0.072 h⁻¹
  λZ, Min: 0.055 h⁻¹
[1]; human, in vivo
  concentration at 24 h: 900 nM
[1]; human, in vivo, 625 mg
  Vd: 381 L
[1]; human, in vivo, 625 mg, AUC, Geo. Mean, N=6 patients receiving 625 mg ONC201 every three weeks
  AUC: 24600 ng·h/mL
[1]; human, in vivo, 625 mg, AUC, Mean, N=6 patients receiving 625 mg ONC201 every three weeks
  AUC: 26300 ng·h/mL
[1]; human, in vivo, 625 mg, AUC, Median, N=6 patients receiving 625 mg ONC201 every three weeks
  AUC: 25600 ng·h/mL
[1]; [5]
  AUC(0-t): 25500 ng·h/mL
  Tmax: 1.79 h
  Vd/F: 381 L
[1]; [6]
  AUC(0-t): 24300 ng·h/mL
  Tmax: 1.91 h
  Vd/F: 404 L
[1]; human, in vivo, 625 mg, Cmax, Geo. Mean, N=6 patients receiving 625 mg ONC201 every three weeks
  Cmax: 2890 ng/mL
[1]; human, in vivo, 625 mg, Cmax, Mean, N=6 patients receiving 625 mg ONC201 every three weeks
  Cmax: 3310 ng/mL
[1]; human, in vivo, 625 mg, Cmax, Median, N=6 patients receiving 625 mg ONC201 every three weeks
  Cmax: 2720 ng/mL
[1]; human, in vivo, 625 mg, Mean AUC, top dose cohort (625 mg)
  AUC: 26300 ng·h/mL
[1]; [7]
  Tmax: 1.34 h
  Vd/F: 348 L
[1]; human, in vivo, 625 mg, mean Cmax, top dose cohort (625 mg), first dose
  Cmax: 3310 ng/mL
[1]; human, in vivo, 625 mg, mean t1/2, top dose cohort (625 mg)
  half-life: 577 min
[1]; human, in vivo, 625 mg, t1/2, Geo. Mean, N=6 patients receiving 625 mg ONC201 every three weeks
  half-life: 569 min
[1]; human, in vivo, 625 mg, t1/2, Mean, N=6 patients receiving 625 mg ONC201 every three weeks
  half-life: 577 min
[1]; human, in vivo, 625 mg, t1/2, Median, N=6 patients receiving 625 mg ONC201 every three weeks
  half-life: 576 min
[1]; human, in vivo, Cmax, plasma, as quoted for the CYP margin
  Cmax: 9 µM
[1]; human, in vivo, po, 625 mg, AUC, oral ONC201, PK analysis
  AUC: 25000 ng·h/mL
[1]; human, in vivo, po, 625 mg, Cmax, 625 mg (RP2D) orally every 3 weeks
  Cmax: 1500 ng/mL to 7500 ng/mL and 3.9 µM to 19.4 µM
[1]; human, in vivo, po, 625 mg, half-life, oral ONC201, PK analysis
  half-life: 576 min
[1]; oral, dose escalation 125-625 mg
  dose at which plasma concentrations / systemic exposure (AUC, Cmax) saturated: 375 mg
[2]; Pat # 1, NSCLC, 125 mg
  M30 Induction (>50%): No
[2]; Pat # 2, Appendiceal cancer, 250 mg
  M30 Induction (>50%): No
[2]; Pat # 3, Uterine cancer, 375 mg
  M30 Induction (>50%): Yes
[2]; Pat # 4, Renal cancer, 500 mg
  M30 Induction (>50%): No
[2]; Pat # 5, Breast cancer, 625 mg
  M30 Induction (>50%): Yes
[2]; Pat # 6, Prostate adenocarcinoma, 625 mg
  M30 Induction (>50%): Yes
[2]; Pat # 7, Small cell lung cancer, 625 mg
  M30 Induction (>50%): Yes
[2]; Pat # 8, Colon adenocarcinoma, 625 mg
  M30 Induction (>50%): Yes
[2]; Pat # 9, Spindle cell sarcoma, 625 mg
  M30 Induction (>50%): No
[2]; Pat # 10, Ovarian, 625 mg
  M30 Induction (>50%): No
[2]; dose escalation phase, after a single dose, most often on day 21 post-treatment
  number of patients with induction in the M30 assay: Four
[3]; 10 patients, 625 mg every 3 weeks
  only adverse event possibly attributed to ONC201, expansion phase: vomiting in one patient
[3]; 10 patients, 125-625 mg every 3 weeks
  only adverse event possibly attributed to ONC201, dose escalation phase: low grade fever in one patient
[3]; [8]
  Adverse Events Grade 1: Fever
  Adverse Events Grade 2-4: 0
[3]; [9]
  Adverse Events Grade 1: 0
  Adverse Events Grade 2-4: 0
[3]; [10]
  Adverse Events Grade 1: 0
  Adverse Events Grade 2-4: 0
[3]; [11]
  Adverse Events Grade 1: 0
  Adverse Events Grade 2-4: 0
[3]; [12]
  Adverse Events Grade 1: 0
  Adverse Events Grade 2-4: 0
[3]; [13]
  Adverse Events Grade 1: 0
  Adverse Events Grade 2-4: 0
[3]; [14]
  Adverse Events Grade 1: 0
  Adverse Events Grade 2-4: 0
[3]; [15]
  Adverse Events Grade 1: 0
  Adverse Events Grade 2-4: 0
[3]; [16]
  Adverse Events Grade 1: 0
  Adverse Events Grade 2-4: 0
[3]; [17]
  Adverse Events Grade 1: 0
  Adverse Events Grade 2-4: 0
[3]; [18]
  Adverse Events Grade 1: 0
  Adverse Events Grade 2-4: 0
[3]; Pat # 12, Uterine cancer, 625 mg every three weeks, expansion phase
  Adverse Events Grade 1: 0
[3]; [19]
  Adverse Events Grade 1: Vomiting
  Adverse Events Grade 2-4: 0
[3]; [20]
  Adverse Events Grade 1: 0
  Adverse Events Grade 2-4: 0
[3]; [21]
  Adverse Events Grade 1: 0
  Adverse Events Grade 2-4: 0
[3]; [22]
  Adverse Events Grade 1: 0
  Adverse Events Grade 2-4: 0
[3]; [23]
  Adverse Events Grade 1: 0
  Adverse Events Grade 2-4: 0
[3]; [24]
  Adverse Events Grade 1: 0
  Adverse Events Grade 2-4: 0
[3]; [25]
  Adverse Events Grade 1: 0
  Adverse Events Grade 2-4: 0
[3]; [26]
  Adverse Events Grade 1: 0
  Adverse Events Grade 2-4: 0
[3]; oral 125 to 625 mg every 3 weeks
  drug-related adverse events: No Grade >1 drug-related adverse events occurred
[3]; oral, once every 3 weeks
  recommended phase II dose (RP2D): 625 mg
[3]; phase I patients
  Laboratory studies and physical exams: did not reveal any drug-related abnormalities
  cardiovascular assessments: no drug-related effects
Human MDR1
  inhibitor of MDR1: inhibitor
